Experimental findings from patent publication US20260248763A1 (BIO GENUINE (SHANGHAI) BIOTECH CO., LTD, priority 2023, published 2026) are described below.

Read-outs that look alike come from different tables or passages of the source.

One data set concerns the target T1, OTR (Homo sapiens, UniProt P30559).
T1 construct: expressed in transfected cells; host or cells: OTR/HEK293 stably transfected cell line
T1 sequence (P30559 1-389): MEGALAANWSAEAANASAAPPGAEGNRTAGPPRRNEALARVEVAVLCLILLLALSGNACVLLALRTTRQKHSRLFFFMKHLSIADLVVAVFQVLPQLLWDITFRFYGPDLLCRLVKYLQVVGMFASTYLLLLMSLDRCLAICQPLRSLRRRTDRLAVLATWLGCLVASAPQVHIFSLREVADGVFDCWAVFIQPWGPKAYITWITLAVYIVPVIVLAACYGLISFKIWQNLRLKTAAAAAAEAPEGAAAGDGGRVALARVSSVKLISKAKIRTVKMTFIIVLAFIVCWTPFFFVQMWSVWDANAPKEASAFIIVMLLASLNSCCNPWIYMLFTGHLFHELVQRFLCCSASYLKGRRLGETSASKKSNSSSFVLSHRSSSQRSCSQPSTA
Nature of the data set: Ca2+ mobilization in cells stably expressing OTR (FLIPR, antagonist mode). It is filed as cell-based. The note with it: OTR/HEK293 stably transfected cell line. An outline of the steps:
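OTR/HEK293 stable cells (20,000 per well) were loaded with Fluo-4 Direct plus probenecid. Cells were pre-exposed to 10-point, 3-fold compound dilutions before agonist challenge at EC80, determined beforehand per cell line. FLIPR calcium fluorescence (Max-Min) was fitted in Prism.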

For the next data set, the target named is T2, V1aR (Homo sapiens, UniProt P37288).
T2 construct: expressed in transfected cells; host or cells: V1a-CHO stably transfected cell line
T2 sequence (P37288 whole entry, species assumed): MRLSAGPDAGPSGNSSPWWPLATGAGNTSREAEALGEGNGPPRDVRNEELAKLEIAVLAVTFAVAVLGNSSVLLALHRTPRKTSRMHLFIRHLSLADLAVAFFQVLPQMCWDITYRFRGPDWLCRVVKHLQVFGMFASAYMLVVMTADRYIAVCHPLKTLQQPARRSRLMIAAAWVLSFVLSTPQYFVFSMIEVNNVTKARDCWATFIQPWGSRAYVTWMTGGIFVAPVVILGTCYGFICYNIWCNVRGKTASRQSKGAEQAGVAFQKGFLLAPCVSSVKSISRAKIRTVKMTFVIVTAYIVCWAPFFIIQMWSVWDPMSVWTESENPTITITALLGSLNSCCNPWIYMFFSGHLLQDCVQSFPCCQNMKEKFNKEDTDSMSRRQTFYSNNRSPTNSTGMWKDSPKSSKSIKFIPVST
Nature of the data set: Ca2+ mobilization in cells stably expressing V1aR (FLIPR, antagonist mode). It is filed as cell-based. The note with it: V1a-CHO stably transfected cell line. The source says:
Test Example 2. Determination of the Effect of the Compound of the Present Disclosure on Ca^2+ Mobilization in Cells Stably Expressing V1aR
To measure the antagonistic effect of the compound of the present disclosure on V1aR activity expressed in the V1a-CHO stably transfected cell line.
• F-12 (Hyclone, SH30026.01) • FLIPR CALCIUM 6 ASSAY KIT (Molecul Device, R8191) • Fetal Bovine Serum (FBS) (AusGeneX, FBS500-S) • Hygromycin B (Solarbio, H8080-1g) • DMSO (Sigma, D4540) • HBSS (Gibco 14025-092) • Probenecid (MCE, HY—B0545) • 0.36 mL 96 Round V-bottom Deep Well Plates for Laboratory (Biaosen P-0.36-BSA-96) • 384-well conical bottom polypropylene plate (Nunc, 264573) • Corning® 384-well Flat Clear Bottom Black Polystyrene TC-treated Microplates (Corning 3764)
• Biological safety cabinet (ECSO, AC2-6S1-TC) • Carbon dioxide cell incubator (ECSO, CCI-170B-8) • Inverted microscope (Olympus, CKX53) • Microplate low-speed centrifuge (Xiangzhi, TD5B) • FLIPR® Penta (Molecul Device, 5.0)
• 1. Cell plating: V1a-CHO cells were digested and harvested, resuspended and counted, and then inoculated into a 384-well cell plate at a density of: 1.2×10^4 cells/25 μL/well. The cell plate was then incubated in an incubator at 37° C. with 5% CO2 for about 16-20 h. • 2. The next day: after preparing Assay Buffer, 20× Component A was thawed to room temperature, diluted with Assay buffer to 1× loading buffer, and placed at room temperature for later use. • 3. The medium was removed from the cell plate, and 40 μL of 1× loading buffer was quickly added to each well. After centrifugation, the cell plate was incubated at 37° C. in the dark for 120 minutes. • 4. The serially diluted positive compound, serially diluted test compound, and agonist working solution were formulated. After mixing the serially diluted positive compound/serially diluted test compound with the agonist at a 1:1 ratio, 20 μL per well was transferred to a 384-well compound source plate. • 5. The cell plate, agonist source plate, and pipette tips were placed into their respective positions in the FLIPR instrument. Using FLIPR Tetra, 10 μL of the diluted agonist from Step 4 was added to each test well, and the data were collected at a wavelength of 515 nm-575 nm. • 6. The signal values were plotted against the compound concentrations, and the curve fitting and IC50 calculation were performed using the nonlinear regression method of GraphPad Prism software.
In general terms: A change in cytosolic calcium serves as a functional read-out for many receptors and channels.

Data set [1] in a line: Pharmacokinetic determination in SD rats. The note with it: rat, female SD rats, plasma; for AUC(0-t): read-out: Area under the curve AUC0-t; for half-life: read-out: Half-life T1/2 (converted). The format is in vivo. The procedure: Test Example 3: Pharmacokinetic Determination in SD Rats
In this study, female SD rats were selected as test animals. The LC/MS/MS method was used to quantitatively determine the plasma drug concentrations of the test compounds at different time points after intravenous injection (2 mg/kg) or oral administration (5 mg/kg) in rats, so as to evaluate the pharmacokinetic profile of the test drugs in rats.
(§1) The example compounds of the present disclosure, made in house.
(§2) SD rats (female, 180-220 g, 6-8 weeks old, purchased from Beijing Vital River Laboratory Animal Technology Co., Ltd., with animal production license number SCXK (Beijing) 2021-0006).
Vehicle for intravenous administration: 5% DMSO+10% Solutol+85% Saline.
Vehicle for oral administration: 5% DMSO+95% PEG400.
The test compound, formulated as a clear solution or suspension, was administered to overnight-fasted SD rats via tail vein injection or oral gavage. For intravenous administration, blood samples (0.25 mL) were collected via jugular vein puncture at pre-dose (0 h) and 0.083, 0.25, 0.5, 1, 2, 4, 6, 8, and 24 h post-dose. The samples were placed into sodium heparin anticoagulant tubes, and the mixture was vortexed thoroughly and centrifuged at 6,000 rpm for 3 minutes at 4° C. For oral gavage, blood samples were collected via jugular vein puncture at pre-dose (0 h) and 0.083, 0.25, 1, 2, 4, 6, 8, and 24 h post-dose. The samples were placed into sodium heparin anticoagulant tubes, and the mixture was vortexed thoroughly and centrifuged at 6,000 rpm for 3 minutes. Plasma drug concentrations were determined using the LC-MS/MS method, and the relevant pharmacokinetic parameters were calculated using the non-compartmental model with linear-log trapezoidal method in Phoenix WinNonlin 8.2.0 pharmacokinetic software.

Data set [2] in a line: Blood-brain distribution determination in SD rats. The format is in vivo. The note with it: female SD rats, oral, 10 mg/kg. The procedure:
Test Example 4: Blood-Brain Distribution Determination in SD Rats
In this study, female SD rats were selected as test animals. The LC/MS/MS method was used to quantitatively determine the drug concentrations of the test compounds in plasma and brain tissues at three different time points (0.5 h, 2 h, 4 h or 6 h) after oral administration (5 mg/kg or 10 mg/kg) in rats, so as to evaluate the pharmacokinetic profile of the test drugs in rats.
as §1, §2
Vehicle for oral administration: 5% DMSO+95% PEG400 or a mixture of (50% Labrasol+50% Water).
The test compound, formulated as a clear solution or suspension, was administered to overnight-fasted SD rats via oral gavage. For oral gavage, blood samples (0.25 mL) were collected via jugular vein puncture at pre-dose (0 h) and 0.5 h, 2 h, 4 h or 6 h post-dose. The samples were placed into sodium heparin anticoagulant tubes. After collection, the blood samples were placed on wet ice and centrifuged within 1 hour to separate the plasma. The separated plasma was stored frozen in a −80° C. freezer. After blood collection, the animals were euthanized by cervical dislocation. The whole brain tissue was dissected out. The collected brain tissue was first rinsed with physiological saline, blotted dry with absorbent paper, and then stored frozen in a −80° C. freezer. Prior to analysis, the brain tissue samples and plasma samples were taken out from the −80° C. freezer. After the brain tissue samples were completely thawed, a given amount of brain tissue was weighed, and 50% methanol/water was added for homogenization. Drug concentrations in plasma and brain tissues were determined using the LC-MS/MS method, and the relevant pharmacokinetic parameters were calculated using the non-compartmental model with linear-log trapezoidal method in Phoenix WinNonlin 8.2.0 pharmacokinetic software.

Turning to `CO/N=C1/C[C@@H](CO)N(C(=O)c2ccc(-c3cccc(C#N)c3Cl)c3c2OCCO3)C1` [Example C0154, (S,Z)-2-Chloro-3-(8-(2-(hydroxymethyl)-4-(methoxyimino)pyrrolidine-1-carbonyl)-2,3-dihydrobenzo[b][1,4]dioxin-5-yl)benzonitrile], the concentration for half-maximal inhibition (IC50) at OTR came out at 5.32 nM; at V1aR it was 1610 nM.
In the same order, the values of `CO/N=C1/C[C@@H](CO)N(C(=O)c2ccc(-c3cccc(C#N)c3C)c(F)c2)C1` [Example C0158, (S,Z)-2′-Fluoro-4′-(2-(hydroxymethyl)-4-(methoxyimino)pyrrolidine-1-carbonyl)-2-methyl-[1,1′-biphenyl]-3-carbonitrile] are 17.2 nM and 520 nM.
For `CO/N=C1/C[C@@H](CO)N(C(=O)c2cc(F)c(-c3cccc(C#N)c3C)c3c2OCCO3)C1` [Example C0160, 3-(6-Fluoro-8-((S,Z)-2-(hydroxymethyl)-4-(methoxyimino)pyrrolidine-1-carbonyl)-2,3-dihydrobenzo[b][1,4]dioxin-5-yl)-2-methylbenzonitrile] the same measures were 21.9 nM and 529 nM.
For `CO/N=C1/C[C@@H](CO)N(C(=O)c2cc(F)c(-c3cccc(C#N)c3C)c3c2OCO3)C1` [Example C0162, 3-(5-Fluoro-7-((S,Z)-2-(hydroxymethyl)-4-(methoxyimino)pyrrolidine-1-carbonyl)benzo[d][1,3]dioxol-4-yl)-2-methylbenzonitrile] the same measures were 8.35 nM and 747 nM.
Take `CO/N=C1/C[C@@H](C(C)(C)O)N(C(=O)c2ccc(-c3cccc(C#N)c3C)cc2)C1` [Example C0164, (S,Z)-4′-(2-(2-Hydroxypropan-2-yl)-4-(methoxyimino)pyrrolidine-1-carbonyl)-2-methyl-[1,1′-biphenyl]-3-carbonitrile]: the IC50 is 20.6 nM against OTR and 1870 nM on V1aR.
Consider `CO/N=C1/C[C@@H](CO)N(C(=O)c2ccc(-c3ccccc3C)cc2)C1` [Nolasiban, reference compound], for which the half-maximal inhibitory concentration (IC50) against V1aR was 389 nM. Also, the AUC(0-t) in data set [1] (2 mg/kg, IV (2 mpk)) was found to be 3050 ng·h/mL; in data set [1] (5 mg/kg, PO (5 mpk)), 7700 ng·h/mL; in data set [2] (rat, plasma, read-out: Plasma area under the curve AUC0-t) it was 5700 ng·h/mL. In data set [1] (2 mg/kg, IV (2 mpk), read-out: Clearance Cl), the clearance stood at 11.1 mL/min/kg. The half-life in data set [1] (2 mg/kg, IV (2 mpk)) was 2.8 h; in data set [1] (5 mg/kg, PO (5 mpk)) it was 2.71 h. Besides, the “Brain tissue area under the curve AUC0-t” value in data set [2] is 18727 ng·h/g. Besides, the Kp in data set [2] (rat, brain/plasma, read-out: Brain/plasma exposure ratio) is 3.29.

The term IC50 denotes the concentration at which inhibition is half-maximal. Broadly, the clearance is a measure of how efficiently the substance is removed, as volume per time.
